# Results reported in patent publication US8088791B2, “Antibacterial agents” (Biots Scientific Management Pty Ltd, priority 2006, dated 2012).
# Like-named read-outs stand apart in the source and are kept apart here.
# Experiments:
# Bacillus subtilis 168CA = test: Minimum Inhibitory Concentration (MIC) testing, broth microdilution, Bacillus subtilis; format: cell-based; conditions: read-out: Bacillus subtilis MICs Activity
# Description: (§1) Compounds of this invention were tested for antimicrobial activity by susceptibility testing in liquid media. MICs for compounds against each strain were determined by a broth microdilution method according to the National Committee for Clinical Laboratory Standards (NCCLS) guidelines. (NCCLS. 2000. Methods for dilution antimicrobial susceptibility tests for bacteria that grow aerobically—fifth edition. Approved standard M7-A5. NCCLS, Wayne, Pa.)
# (§2) Briefly, test compounds are prepared in 100 μl of 1.6% DMSO solution in multiwell plates. Several bacterial colonies from a freshly streaked plate are transferred to an appropriate rich broth, such as Mueller Hinton. The cell suspension is adjusted to an optical density of 0.09 and further diluted 1:100 with warm 2× broth. This cell suspension is dispensed into the wells containing compound solution so that the final volume is 200 μl. The plates are incubated overnight (16-20 hours) at 37° C. and turbidity is scored by eye and quantified spectrophotometrically. The MIC is defined as the lowest concentration inhibiting visible growth.
# Activities were scored as ‘A’ if the MIC was ≦8 micrograms/ml, ‘B’ if the MIC was 16 to 64 micrograms/ml and ‘C’ if the MIC was greater than 64 micrograms/ml.
# [1] = tested on: Staphylococcus aureus ATCC29213; test: Minimum Inhibitory Concentration (MIC) testing, broth microdilution, Staphylococcus aureus; format: cell-based; conditions: Staphylococcus aureus ATCC29213; read-out: Staphylococcus aureus MICs Activity
# Description: as §1, §2
# Some of the compounds of the Examples were also tested for activity against the pathogenic organism Staphylococcus aureus ATCC29213. […] Activities were again scored as ‘A’ if the MIC was ≦8 micrograms/ml, ‘B’ if the MIC was 16 to 64 micrograms/ml and ‘C’ if the MIC was greater than 64 micrograms/ml.
SMILES,MIC (Bacillus subtilis 168CA; Bacillus subtilis 168CA),MIC [1],"MIC (Bacillus subtilis 168CA; Bacillus subtilis, 168CA)"
"CCC(C)CCOc1cccc(C(N)=O)c1 (centres unmarked) [Example 60, 3-[(3-Methylpentyl)oxy]benzenecarboxamide]",16 to 64 µg/mL,16 to 64 µg/mL,–
"NC(=O)c1c(F)ccc(OCc2nc3c(Cl)cccc3s2)c1F [Example 226, 3-[(4-Chloro-1,3-benzothiazol-2-yl)methoxy]-2,6-difluorobenzenecarboxamide]",16 to 64 µg/mL,16 to 64 µg/mL,–
"CCCCCCCCCCCOc1ccc(F)c(C(N)=O)c1 [Example 72, 2-Fluoro-5-(undecyloxy)benzenecarboxamide]",16 to 64 µg/mL,16 to 64 µg/mL,–
"NC(=O)c1c(F)ccc(OCc2nc3cc(-c4ccc(O)cc4)ccc3s2)c1F [Example 140, 2,6-Difluoro-3-[5-(4-hydroxy-phenyl)-benzothiazol-2-ylmethoxy]-benzamide]",> 64 µg/mL,< 8 µg/mL,–
"CC(=O)OCCCCCOc1cccc(C(N)=O)c1 [Example 18, 5-[3-(Aminocarbonyl)phenoxy]pentyl acetate]",> 64 µg/mL,> 64 µg/mL,–
"CCC1CC1CCCCOc1cccc(C(N)=O)c1 (centres unmarked) [Example 91, 3-[4-(2-Ethylcyclopropyl)butoxy]benzenecarboxamide]",< 8 µg/mL,< 8 µg/mL,–
"CCCCCCOCCOc1cccc(C(N)=O)c1 [Example 54, 3-[2-(Hexyloxy)ethoxy]benzenecarboxamide]",16 to 64 µg/mL,16 to 64 µg/mL,–
"CC(=O)Oc1cccc(COc2cccc(C(N)=O)c2)c1 [Example 172, 3-[3-(Aminocarbonyl)phenoxy]methylphenyl acetate]",> 64 µg/mL,> 64 µg/mL,–
"Cc1cccc(COc2ccc(F)c(C(N)=O)c2F)n1 [Example 197, 2,6-Difluoro-3-[(6-methyl-2-pyridinyl)methoxy]benzenecarboxamide]",16 to 64 µg/mL,16 to 64 µg/mL,–
"Cl.NC(=O)c1c(F)ccc(OCc2nc(-c3ccc(N)cc3)no2)c1F [Example 251, 3-[3-(4-Aminophenyl)-1,2,4-oxadiazol-5-yl]methoxy-2,6-difluorobenzenecarboxamide hydrochloride salt]",16 to 64 µg/mL,16 to 64 µg/mL,–
"CCCCCCOc1cccc(C(N)=O)c1O [Example 166, 2-Hydroxy-3-Hexoxy-benzamide]",> 64 µg/mL,> 64 µg/mL,–
"CCCCCCOc1nccc(C(N)=O)c1Cl [Example 174, 3-Chloro-2-(hexyloxy)isonicotinamide]",16 to 64 µg/mL,16 to 64 µg/mL,–
"NC(=O)c1c(F)ccc(OCc2noc(-c3cccs3)n2)c1F [Example 134, 2,6-Difluoro-3-(5-thiophen-2-yl-[1,2,4]oxadiazol-3-ylmethoxy)-benzamide]",16 to 64 µg/mL,16 to 64 µg/mL,–
"COc1cccc(-c2ccc3sc(COc4ccc(F)c(C(N)=O)c4F)nc3c2)c1 [Example 143, 2,6-Difluoro-3-[5-(3-methoxy-phenyl)-benzothiazol-2-ylmethoxy]-benzamide]",> 64 µg/mL,< 8 µg/mL,–
"NC(=O)c1c(F)ccc(OCCCCO)c1F [Example 178, 2,6-Difluoro-3-(4-hydroxybutoxy)benzenecarboxamide]",16 to 64 µg/mL,16 to 64 µg/mL,–
NC(=O)c1c(F)ccc(OCc2nc3cc(C4=CCCC4)ccc3s2)c1F [Example 316],–,< 8 µg/mL,< 8 µg/mL
"NC(=O)c1cccc(OCc2cccc(Br)c2)c1 [Example 171, 3-[(3-Bromobenzyl)oxy]benzenecarboxamide]",16 to 64 µg/mL,16 to 64 µg/mL,–
"C=CCCCCCOc1cccc(C(N)=O)c1 [Example 17, 3-(6-Heptenyloxy)benzenecarboxamide]",16 to 64 µg/mL,16 to 64 µg/mL,–
"NC(=O)c1c(F)ccc(OCc2cccc(F)c2)c1F [Example 101, 2,6-Difluoro-3-(3-fluoro-benzyloxy)-benzamide]",16 to 64 µg/mL,16 to 64 µg/mL,–
"NC(=O)c1c(F)ccc(OCc2nc3cc([N+](=O)[O-])ccc3o2)c1F [Example 214, 2,6-Difluoro-3-[(5-nitro-1,3-benzoxazol-2-yl)methoxy]benzenecarboxamide]",16 to 64 µg/mL,16 to 64 µg/mL,–
"COc1ccc(-c2nc(COc3ccc(F)c(C(N)=O)c3F)co2)cc1 [Example 293, 2,6-Difluoro-3-[2-(4-methoxy-phenyl)-oxazol-4-ylmethoxy]-benzamide]",< 8 µg/mL,< 8 µg/mL,–

# Continued, in another order:
MIC (Bacillus subtilis 168CA; Bacillus subtilis 168CA),MIC [1],SMILES,"MIC (Bacillus subtilis 168CA; Bacillus subtilis, 168CA)"
< 8 µg/mL,< 8 µg/mL,"COc1ccc(-c2nc(COc3ccc(F)c(C(N)=O)c3F)sc2-c2cccc(O)c2)cc1 [Example 278, 2,6-Difluoro-3-[5-(3-hydroxy-phenyl)-4-(4-methoxy-phenyl)-thiazol-2-ylmethoxy]-benzamide]",–
< 8 µg/mL,< 8 µg/mL,"CC(Oc1ccc(F)c(C(N)=O)c1F)c1nc(-c2ccc(Cl)cc2)no1 (centres unmarked) [Example 324, 3-{1-[3-(4-Chloro-phenyl)-[1,2,4]oxadiazol-5-yl]-ethoxy}-2,6-difluoro-benzamide]",–
< 8 µg/mL,< 8 µg/mL,"COc1ccc(-c2nc(COc3ccc(F)c(C(N)=O)c3F)sc2-c2ccccn2)cc1 [Example 125, 2,6-Difluoro-3-[4-(4-methoxy-phenyl)-5-pyridin-2-yl-thiazol-2-ylmethoxy]-benzamide]",–
< 8 µg/mL,16 to 64 µg/mL,NC(=O)c1c(F)ccc(OCc2nc3cc(C4=CCCCC4)ccc3s2)c1F [Example 314],–
< 8 µg/mL,< 8 µg/mL,"NC(=O)c1cccc(OCc2nc(-c3ccc(Cl)cc3)no2)c1F [Example 267, 3-[3-(4-Chloro-phenyl)-[1,2,4]oxadiazol-5-ylmethoxy]-2-fluoro-benzamide]",–
< 8 µg/mL,< 8 µg/mL,"CCc1ccc(-c2noc(COc3ccc(F)c(C(N)=O)c3F)n2)cc1 [Example 250, 3-[3-(4-Ethylphenyl)-1,2,4-oxadiazol-5-yl]methoxy-2,6-difluorobenzenecarboxamide]",–
< 8 µg/mL,< 8 µg/mL,"COc1ccc(-c2nc(COc3ccc(F)c(C(N)=O)c3F)sc2Br)cc1 [Example 158, 3-[5-Bromo-4-(4-methoxy-phenyl)-thiazol-2-ylmethoxy]-2,6-difluoro-benzamide]",–
< 8 µg/mL,16 to 64 µg/mL,"NC(=O)c1c(F)ccc(OCc2csc(-c3cccc(O)c3)n2)c1F [Example 308, 2,6-Difluoro-3-[2-(3-hydroxy-phenyl)-thiazol-4-ylmethoxy]-benzamide]",–
< 8 µg/mL,16 to 64 µg/mL,"NC(=O)c1cc(OCc2nc(-c3ccc(Cl)cc3)no2)ccc1F [Example 268, 5-[3-(4-Chloro-phenyl)-[1,2,4]oxadiazol-5-ylmethoxy]-2-fluoro-benzamide]",–
< 8 µg/mL,< 8 µg/mL,"COc1ccc2sc(COc3ccc(F)c(C(N)=O)c3F)nc2c1 [Example 119, 2,6-Difluoro-3-(5-methoxy-benzothiazol-2-ylmethoxy)-benzamide]",–
< 8 µg/mL,< 8 µg/mL,"COC(=O)c1ccc2nc(COc3ccc(F)c(C(N)=O)c3F)sc2c1 [Example 321, 2-(3-Carbamoyl-2,4-difluoro-phenoxymethyl)-benzothiazole-6-carboxylic acid methyl ester]",–
< 8 µg/mL,< 8 µg/mL,"Cc1ccccc1-c1noc(COc2ccc(F)c(C(N)=O)c2F)n1 [Example 252, 2,6-Difluoro-3-[3-(2-methylphenyl)-1,2,4-oxadiazol-5-yl]methoxybenzenecarboxamide]",–
< 8 µg/mL,< 8 µg/mL,"COc1ccc(-c2nc(COc3ccc(F)c(C(N)=O)c3F)sc2-c2ccccc2O)cc1 [Example 277, 2,6-Difluoro-3-[5-(2-hydroxy-phenyl)-4-(4-methoxy-phenyl)-thiazol-2-ylmethoxy]-benzamide]",–
< 8 µg/mL,< 8 µg/mL,"NC(=O)c1c(F)ccc(OCc2nc3cc(Cl)ccc3o2)c1F [Example 210, 3-[(5-Chloro-1,3-benzoxazol-2-yl)methoxy]-2,6-difluorobenzenecarboxamide]",–
< 8 µg/mL,16 to 64 µg/mL,"Cc1nn(-c2ccccc2)nc1COc1ccc(F)c(C(N)=O)c1F [Example 325, 2,6-Difluoro-3-(5-methyl-2-phenyl-2H-[1,2,3]triazol-4-ylmethoxy)-benzamide]",–
< 8 µg/mL,16 to 64 µg/mL,"NC(=O)c1c(F)ccc(OCc2cccs2)c1F [Example 186, 2,6-Difluoro-3-(2-thienylmethoxy)benzenecarboxamide]",–
< 8 µg/mL,< 8 µg/mL,"NC(=O)c1c(F)ccc(OCc2csc(-c3ccc(O)cc3)n2)c1F [Example 304, 2,6-Difluoro-3-[2-(4-hydroxy-phenyl)-thiazol-4-ylmethoxy]-benzamide]",–
< 8 µg/mL,16 to 64 µg/mL,"Cc1ccc2oc(COc3ccc(F)c(C(N)=O)c3F)nc2c1 [Example 212, 2,6-Difluoro-3-[(5-methyl-1,3-benzoxazol-2-yl)methoxy]benzenecarboxamide]",–
< 8 µg/mL,< 8 µg/mL,"C=CCc1sc(COc2ccc(F)c(C(N)=O)c2F)nc1-c1ccc(OC)cc1 [Example 120, 3-[5-Allyl-4-(4-methoxy-phenyl)-thiazol-2-ylmethoxy]-2,6-difluoro-benzamide]",–
